In US20240116985A1, “STAPLED PEPTIDES AND METHODS THEREOF” (priority 2020, published 2024):
In brackets after ≈: the same amount, converted by molar mass. Where two headings read alike, the source gives them in different places.

Experiments:
[1] = molecular target: T1, full-length beta-Catenin (Uniprot ID P35222) (Homo sapiens, UniProt P35222); experiment: Fluorescence polarization IC50 (beta-catenin / 5FAM-TCF4 10-53 competition); assay type: binding; conditions: read-out: beta-Catenin FP IC50
T1 construct: 10 nM full-length beta-Catenin (Uniprot ID P35222)
T1 sequence (P35222 1-781): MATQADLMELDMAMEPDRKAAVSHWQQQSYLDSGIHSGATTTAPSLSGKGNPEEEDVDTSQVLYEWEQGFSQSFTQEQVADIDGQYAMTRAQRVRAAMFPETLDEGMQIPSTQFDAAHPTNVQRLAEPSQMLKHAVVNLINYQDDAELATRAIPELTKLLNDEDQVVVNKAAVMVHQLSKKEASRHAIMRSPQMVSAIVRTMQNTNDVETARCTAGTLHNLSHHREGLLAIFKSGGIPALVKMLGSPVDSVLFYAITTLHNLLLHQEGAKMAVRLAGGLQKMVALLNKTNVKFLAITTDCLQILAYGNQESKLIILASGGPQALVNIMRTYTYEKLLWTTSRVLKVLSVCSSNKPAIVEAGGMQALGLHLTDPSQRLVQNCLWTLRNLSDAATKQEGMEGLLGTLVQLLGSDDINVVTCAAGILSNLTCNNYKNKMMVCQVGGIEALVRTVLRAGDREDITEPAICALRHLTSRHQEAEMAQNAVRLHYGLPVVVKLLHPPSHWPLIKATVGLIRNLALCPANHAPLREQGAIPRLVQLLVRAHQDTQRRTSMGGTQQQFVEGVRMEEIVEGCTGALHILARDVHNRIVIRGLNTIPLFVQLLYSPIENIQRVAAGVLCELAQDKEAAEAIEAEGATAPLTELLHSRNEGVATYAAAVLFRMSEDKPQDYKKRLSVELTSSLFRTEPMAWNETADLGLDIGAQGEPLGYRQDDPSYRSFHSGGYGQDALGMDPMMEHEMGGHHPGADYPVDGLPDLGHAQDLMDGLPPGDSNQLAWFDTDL

[2] = CHI Log D procedure; assay type: physicochemical; conditions: pH 7.4, CHI Log D
[3] = Solubility in PBS; assay type: physicochemical
Outline: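 The PBS solution was ultracentrifuged and the supernatant analyzed by HPLC. Its peak area was divided by that of a 50 μM peptide DMSO reference injection and multiplied by 50 uM to give solubility.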

[4] = molecular target: T2, beta-catenin/TCF4 engagement (Homo sapiens, UniProt P35222); experiment: Nano-BRET target engagement assay (B-cat-Halo & TCF4-Luc in HEK293 cells); assay type: cell-based; conditions: for inhibition at 10 µM: HEK293, 10 uM, read-out: NanoBRET % inh @ 10 uM
T2 construct: expressed in transfected cells; host or cells: HEK293
T2 sequence (P35222 1-781): T1 sequence (P35222 1-781)

IC50 [1] [µM] | chromatographic logD [2] | Solubility ([3]; Solubility (uM)) [µM] | inhibition at 10 µM [4] [%] | IC50 ([4]; read-out: NanoBRET IC50) [µM] | IC50 ([4]; read-out: NanoBRET Abs IC50) [µM] | Solubility [3] [µM] | SMILES
0.006 | 2.12 | 48 (≈ 91.4 µg/mL) | 31.4 |  | 15 |  | CC(=O)N1CCC[C@]12CC=CCCCC1(CCCC=CCCCOC(=O)N3CC[C@@](C(=O)N[C@@H](Cc4ccsc4)C(=O)N[C@@H](Cc4csc5ccccc45)C(=O)N[C@H](CC(N)=O)C(N)=O)(C3)NC(=O)[C@H](CC(N)=O)NC(=O)[C@H](Cc3ccccc3)NC(=O)[C@H](C)NC(=O)[C@H](C)NC(=O)[C@H](CC(=O)O)NC(=O)[C@H](CC(=O)O)NC1=O)NC(=O)[C@H](CC(C)(C)C)NC(=O)[C@H](CC(=O)O)NC2=O (stereo partly drawn) [I-818, Ac-PL3-Asp-Npg-B5-Asp-Asp-Ala-Ala-Phe-Asn-PyrS2-3Thi-BztA-dAsn-NH2]
0.006 | 2.1 | 38 (≈ 75.9 µg/mL) | 30.8 |  | 18.2 |  | CC(=O)N1CCC[C@]12CC=CCCCC1(CCCC=CCCCOC(=O)N3CC[C@@](C(=O)N[C@@H](Cc4ccsc4)C(=O)N[C@@H](Cc4csc5ccccc45)C(=O)N[C@@H](Cc4c[nH]cn4)C(=O)N[C@@H](C)C(N)=O)(C3)NC(=O)[C@H](CC(N)=O)NC(=O)[C@H](Cc3ccccc3)NC(=O)[C@H](C)NC(=O)[C@H](C)NC(=O)[C@H](CC(=O)O)NC(=O)[C@H](CC(=O)O)NC1=O)NC(=O)[C@H](CC(C)(C)C)NC(=O)[C@H](CC(=O)O)NC2=O (stereo partly drawn) [I-820, Ac-PL3-Asp-Npg-B5-Asp-Asp-Ala-Ala-Phe-Asn-PyrS2-3Thi-BztA-His-Ala-NH2]

More lines, now with the values behind:

SMILES | IC50 [1] [µM] | chromatographic logD [2] | Solubility ([3]; Solubility (uM)) [µM] | inhibition at 10 µM [4] [%] | IC50 ([4]; read-out: NanoBRET IC50) [µM] | IC50 ([4]; read-out: NanoBRET Abs IC50) [µM] | Solubility [3] [µM]
CC(=O)N1CCC[C@]12CC=CCCCC1(CCCC=CCCCOC(=O)N3CC[C@@](C(=O)N[C@@H](Cc4ccsc4)C(=O)N[C@@H](Cc4csc5ccccc45)C(=O)N[C@@H](C(N)=O)[C@H](C)O)(C3)NC(=O)[C@H](CC(N)=O)NC(=O)[C@H](Cc3ccccc3)NC(=O)[C@H](C)NC(=O)[C@H](C)NC(=O)[C@H](CC(=O)O)NC(=O)[C@H](CC(=O)O)NC1=O)NC(=O)[C@H](CC(C)(C)C)NC(=O)[C@H](CC(=O)O)NC2=O (stereo partly drawn) [I-817, Ac-PL3-Asp-Npg-B5-Asp-Asp-Ala-Ala-Phe-Asn-PyrS2-3Thi-BztA-dThr-NH2] | 0.01 | 2.23 | 47 (≈ 88.9 µg/mL) | 45 | 6.8 |  | 
CC(=O)N1CCC[C@]12CC=CCCCC1(CCCC=CCCCOC(=O)N3CC[C@@](C(=O)N[C@@H](Cc4ccsc4)C(=O)N[C@@H](Cc4csc5ccccc45)C(=O)N[C@@H](CCC(N)=O)C(=O)N[C@@H](C)C(N)=O)(C3)NC(=O)[C@H](CC(N)=O)NC(=O)[C@H](Cc3ccccc3)NC(=O)[C@H](C)NC(=O)[C@H](C)NC(=O)[C@H](CC(=O)O)NC(=O)[C@H](CC(=O)O)NC1=O)NC(=O)[C@H](CC(C)(C)C)NC(=O)[C@H](CC(=O)O)NC2=O (stereo partly drawn) [I-819, Ac-PL3-Asp-Npg-B5-Asp-Asp-Ala-Ala-Phe-Asn-PyrS2-3Thi-BztA-Gln-Ala-NH2] | 0.005 | 2.03 |  | 37.8 |  | 7.5 | 50 (≈ 99.5 µg/mL)
CC(=O)N1CCC[C@]12CC=CCCCC1(CCCC=CCCCOC(=O)N3CC[C@@](C(=O)N[C@@H](Cc4ccsc4)C(=O)N[C@@H](Cc4csc5ccccc45)C(=O)N[C@@H](CC(N)=O)C(=O)N[C@@H](C)C(N)=O)(C3)NC(=O)[C@H](CC(N)=O)NC(=O)[C@H](Cc3ccccc3)NC(=O)[C@H](C)NC(=O)[C@H](C)NC(=O)[C@H](CC(=O)O)NC(=O)[C@H](CC(=O)O)NC1=O)NC(=O)[C@H](CC(C)(C)C)NC(=O)[C@H](CC(=O)O)NC2=O (stereo partly drawn) [I-821, Ac-PL3-Asp-Npg-B5-Asp-Asp-Ala-Ala-Phe-Asn-PyrS2-3Thi-BztA-Asn-Ala-NH2] | 0.005 | 2.07 | 36 (≈ 71.1 µg/mL) |  |  | 9.1 | 
